# Experimental data published in US10508118B2, “Pyrimidopyrrole compounds, method for preparing the same, pharmaceutical compositions comprising the same and uses thereof” (Xiamen University, priority 2015, dated 2019).
# Where two headings read alike, the source gives them in different places.
# Legend:
# Type in all cases: cell-based
# EML4-ALK-BaF3 = target: T1, EML4-ALK-BaF3 (Homo sapiens, UniProt Q9UM73); assay: Growth inhibition of EML4-ALK transformed BaF3 cells (MTS); conditions: for IC50: EML4-ALK-BaF3 cells, 48 hours, MTS; for targeting selectivity: ratio of IC50 between wild-type BaF3 and ALK transformed BaF3 cells
# T1 construct: expressed in transfected cells; host or cells: Ba/F3 cells; the other entry of the earlier key: EML4 (Q9HC35, Echinoderm microtubule-associated protein-like 4)
# Procedure: (§1) If compounds can inhibit the activity of ALK kinase or the activity of ALK signaling pathway, they can inhibit the growth of ALK transformed Ba/F3 cells. […] The broad-spectrum toxicity of compounds can be evaluated by determining the effect of the compounds on the growth of wild type BaF3 cells.
# (§2) 1) Medium: DMEM (Dulbecco's modified eagle medium) or RPMI1640 (containing 10% fetal bovine serum, 100 μg/mL ampicillin, 100 μg/mL streptomycin).)
# (§3) Reagents: MTS solution (2 mg/mL MTS (3-(4,5-dimethylthiazol-2-yl)-5-(3-carboxymethoxyphenyl)-2-(4-sulfophenyl)-2H-tetrazolium, inner salt); 100 μg/mL PES ([…])).
# (§4) 3) Test of compound: Transformed Ba/F3 cells (EML4-ALK-BaF3, EML4-ALK(L1196M)-BaF3, NPM-ALK-BaF3) (2×10^4/well) were distributed into 96-well plates, with volume of cell sap of 90 μL, 10 μL of compounds in gradient concentration (the highest concentration 10 was μM, followed by 1/3 step by step dilution, a total of 8 concentrations were set, the system contained 0.1% DMSO (dimethyl sulfoxide)). The cell plates mixed with compounds were cultured in a cell incubator (37° C.; 5% CO2) for 48 hours, and the added 20 μL of MTS reaction solution, mixed and incubated in cell incubator (37° C.; 5% CO2) for 1-4 hours. The OD value at a wavelength of 490 nm was measured using eliasa (VARIOSKAN FLASH, Thermo). Three parallels were set up for each group, with a final concentration of 0.1% DMSO as negative control, and with medium without cells and compounds as blank control.
# (§5) 4) Calculation of IC50 value: the semi inhibitory concentration of the compound acting on the cells was calculated using GradPad Prism 5 software according to the cell inhibitory rate measured.
# NPM-ALK-BaF3 = target: T2, NPM-ALK-BaF3 (Homo sapiens, UniProt Q9UM73); assay: Growth inhibition of NPM-ALK transformed BaF3 cells (MTS); conditions: 48 hours
# T2 construct: expressed in transfected cells; host or cells: Ba/F3 cells; the other entry of the earlier key: NPM1 (P06748, Nucleophosmin)
# Procedure: (§6) The activity of compounds against ALK kinase was evaluated by inhibiting the growth of cellular ALK kinase EML4-ALK-BaF3, EML4-ALK (L1196M)-BaF3, NPM-ALK-BaF3, and wild type BaF3 (Proc. Natl. Acad. Sci. USA., 2006, 103, 3153-8.) The growth of cellular ALK kinase EML4-ALK-BaF3, EML4-ALK(L1196M)-BaF3, and NPM-ALK-BaF3 depends on their kinase activity. If compounds can inhibit the activity of ALK kinase or the activity of ALK signaling pathway, they can inhibit the growth of ALK transformed Ba/F3 cells. […] The broad-spectrum toxicity of compounds can be evaluated by determining the effect of the compounds on the growth of wild type BaF3 cells.
# as §2, §3
# as §4, with “control. The inhibition rate of cell growth was calculated by the following formula: Cell inhibition rate %=1−(OD experimental group−OD blank group)/(OD negative group−OD blank group)*100%” for “control.”
# as §5
# wild type BaF3 = assay: Growth inhibition of wild type BaF3 cells (broad-spectrum toxicity); conditions: Mus musculus, BaF3, 48 h, MTS
# Procedure: as §6, §2, §3
# as §4, with “control. The inhibition rate of cell growth was calculated by the following formula: Cell inhibition rate %=1−(OD experimental group−OD blank group)/(OD negative group−OD blank group)*100%” for “control.”
# as §5
# EML4-ALK (L1196M)-BaF3 = target: T3, EML4-ALK (L1196M)-BaF3 (Homo sapiens, UniProt Q9UM73, L1196M); assay: Growth inhibition of EML4-ALK (L1196M) transformed BaF3 cells (MTS); conditions: 48 hours
# T3 construct: expressed in transfected cells; host or cells: Ba/F3 cells; the other entry of the earlier key: EML4 (Q9HC35, Echinoderm microtubule-associated protein-like 4)
# Procedure: as §1, §2, §3, §4, §5
# [1] = Table 11, read-out: EML4-ALK (L1196M) (IC50 nM)
# [2] = Table 12, read-out: L1196M (IC50 nM)
IC50 (EML4-ALK-BaF3; Table 11) [nM],IC50 (NPM-ALK-BaF3; Table 11) [nM],IC50 (EML4-ALK (L1196M)-BaF3; [1]) [nM],targeting selectivity (EML4-ALK-BaF3),IC50 (EML4-ALK-BaF3; Table 12) [nM],IC50 (NPM-ALK-BaF3; Table 12) [nM],IC50 (EML4-ALK (L1196M)-BaF3; [2]) [nM],SMILES,IC50 (wild type BaF3; Table 11) [nM],IC50 (wild type BaF3; Table 12) [nM]
,,,,1720,~2510,~2800,COc1cc(N2CCN(C)CC2)ccc1Nc1nc(Nc2ccccc2SC(C)C)c2c(ccn2C)n1 [IIB-1],,1930
,,,,~949,~940,~853,COc1cc(N2CCC(N3CCN(C)CC3)CC2)ccc1Nc1nc(Nc2ccccc2SC(C)C)c2c(ccn2C)n1 [IIB-2],,606
,,,,489,653,917,CC(C)Sc1ccccc1Nc1nc(Nc2ccc(N3CCC(O)CC3)cc2)nc2ccn(C)c12 [IIB-3],,1040
,,,,3020,4570,4210,CC(C)Sc1ccccc1Nc1nc(Nc2ccc(S(N)(=O)=O)cc2)nc2ccn(C)c12 [IIB-4],,4880
,,,,~2720,~1370,~2780,CCOc1cc(C(=O)N2CCC(N3CCN(C)CC3)CC2)ccc1Nc1nc(Nc2ccccc2SC(C)C)c2c(ccn2C)n1 [IIB-5],,~2870
,,,,3530,5120,~5890,COc1cc(N2CCN(C)CC2)ccc1Nc1nc(Nc2ccccc2S(C)(=O)=O)c2c(ccn2C)n1 [IIC-1],,~8670
,,,,1510,~3460,~3510,COc1cc(N2CCC(N3CCN(C)CC3)CC2)ccc1Nc1nc(Nc2ccccc2S(C)(=O)=O)c2c(ccn2C)n1 [IIC-2],,5050
,,,,8290,11800,8990,Cn1ccc2nc(Nc3ccc(N4CCC(O)CC4)cc3)nc(Nc3ccccc3S(C)(=O)=O)c21 [IIC-3],,~10600
,,,,> 10000,> 10000,28200,Cn1ccc2nc(Nc3ccc(S(N)(=O)=O)cc3)nc(Nc3ccccc3S(C)(=O)=O)c21 [IIC-4],,> 10000
,,,,~3240,3780,4410,CN1CCN(c2ccc(Nc3nc(Nc4ccccc4S(C)(=O)=O)c4c(ccn4C)n3)cc2)CC1 [IIC-5],,~7730
,,,,> 10000,> 10000,> 10000,CCOc1cc(N2CCC(O)CC2)ccc1Nc1nc(Nc2ccccc2S(C)(=O)=O)c2c(ccn2C)n1 [IIC-6],,> 10000
,,,,546,2260,~2960,COc1cc(N2CCN(C)CC2)ccc1Nc1nc(Nc2ccccc2S(=O)(=O)C(C)C)c2c(ccn2C)n1 [IID-1],,~8180
,,,good targeting selectivity,330,829,391,COc1cc(N2CCC(N3CCN(C)CC3)CC2)ccc1Nc1nc(Nc2ccccc2S(=O)(=O)C(C)C)c2c(ccn2C)n1 [IID-2],,2910
,,,,2160,6990,6650,CC(C)S(=O)(=O)c1ccccc1Nc1nc(Nc2ccc(N3CCC(O)CC3)cc2)nc2ccn(C)c12 [IID-3],,> 10000
,,,,~3290,~6350,~6440,CC(C)S(=O)(=O)c1ccccc1Nc1nc(Nc2ccc(S(N)(=O)=O)cc2)nc2ccn(C)c12 [IID-4],,7540
,,,,~1130,~2580,~1120,CC(C)S(=O)(=O)c1ccccc1Nc1nc(Nc2ccc(N3CCN(C)CC3)cc2)nc2ccn(C)c12 [IID-5],,~7940
,,,,1600,~3130,~3000,CCOc1cc(N2CCC(O)CC2)ccc1Nc1nc(Nc2ccccc2S(=O)(=O)C(C)C)c2c(ccn2C)n1 [IID-6],,> 10000
,,,,783,~982,~2780,CCOc1cc(C(=O)N2CCC(N3CCN(C)CC3)CC2)ccc1Nc1nc(Nc2ccccc2S(=O)(=O)C(C)C)c2c(ccn2C)n1 [IID-7],,~2580

# Continued, molecule first:
SMILES,IC50 (EML4-ALK-BaF3; Table 11) [nM],IC50 (NPM-ALK-BaF3; Table 11) [nM],IC50 (EML4-ALK (L1196M)-BaF3; [1]) [nM],targeting selectivity (EML4-ALK-BaF3),IC50 (EML4-ALK-BaF3; Table 12) [nM],IC50 (NPM-ALK-BaF3; Table 12) [nM],IC50 (EML4-ALK (L1196M)-BaF3; [2]) [nM],IC50 (wild type BaF3; Table 11) [nM],IC50 (wild type BaF3; Table 12) [nM]
COC(=O)c1ccccc1Nc1nc(Nc2ccc(N3CCC(O)CC3)nc2)nc2cc[nH]c12 [IG-18],4680,8760,4370,,,,,> 10000,
CCC(C)OC(=O)c1ccccc1Nc1nc(Nc2ccc(N3CCN(C)CC3)cc2OC)nc2cc[nH]c12 (centres unmarked) [IH-1],1120,1560,916,,,,,2070,
CCC(C)OC(=O)c1ccccc1Nc1nc(Nc2ccc(N3CCC(O)CC3)cc2)nc2cc[nH]c12 (centres unmarked) [IH-2],> 10000,> 10000,40400,,,,,> 10000,
CCC(C)OC(=O)c1ccccc1Nc1nc(Nc2ccc(N3CCC(N4CCN(C)CC4)CC3)cc2OC)nc2cc[nH]c12 (centres unmarked) [IH-3],~446,~859,502,,,,,~949,
COC(=O)c1cccc(Nc2nc(Nc3ccc(N4CCN(C)CC4)cc3OC)nc3cc[nH]c23)c1 [II-1],1490,1640,~2630,,,,,~2710,
COC(=O)c1cccc(Nc2nc(Nc3ccc(N4CCC(N5CCN(C)CC5)CC4)cc3OC)nc3cc[nH]c23)c1 [II-2],1810,~2600,~2560,,,,,~3030,
COC(=O)c1cccc(Nc2nc(Nc3ccc(N4CCC(O)CC4)cc3)nc3cc[nH]c23)c1 [II-3],7470,4910,6160,,,,,9610,
COC(=O)c1cccc(Nc2nc(Nc3ccc(N4CCOCC4)cc3)nc3cc[nH]c23)c1 [II-5],238,1290,488,good targeting selectivity,,,,1060,
COC(=O)c1cccc(Nc2nc(Nc3ccc(N4CCC(N5CCCC5)CC4)cc3OC)nc3cc[nH]c23)c1 [II-6],4960,6720,~7400,,,,,~8220,
COc1cc(N2CCN(C)CC2)ccc1Nc1nc(Nc2ccccc2SC)c2c(ccn2C)n1 [IIA-1],,,,,~909,512,~2560,,1550
COc1cc(N2CCC(N3CCN(C)CC3)CC2)ccc1Nc1nc(Nc2ccccc2SC)c2c(ccn2C)n1 [IIA-2],,,,,~1110,1400,1620,,~883
CSc1ccccc1Nc1nc(Nc2ccc(N3CCC(O)CC3)cc2)nc2ccn(C)c12 [IIA-3],,,,,321,456,161,,376
CSc1ccccc1Nc1nc(Nc2ccc(S(N)(=O)=O)cc2)nc2ccn(C)c12 [IIA-4],,,,,1300,2700,1320,,2570
CCOc1cc(C(=O)N2CCC(N3CCN(C)CC3)CC2)ccc1Nc1nc(Nc2ccccc2SC)c2c(ccn2C)n1 [IIA-5],,,,,~877,519,~883,,~336
CSc1ccccc1Nc1nc(Nc2ccc(N3CCN(C)CC3)cc2)nc2ccn(C)c12 [IIA-6],,,,,644,536,978,,1370
